Earlier results in patent US20020192255A1, “Liquid emanator device to deliver self-suspending insecticide droplets” (priority 2001, published 2002).

Conditions: thermal decomposition temperature

Row | SMILES | decomposition of the chemical occurs above
1 | CC1(C)[C@H](C=C(Cl)Cl)[C@H]1C(=O)OCc1c(F)c(F)cc(F)c1F [transfluthrin] | above 392 ° F.
2 | C#CCC1=C(C)C(OC(=O)C2C(C=C(C)C)C2(C)C)CC1=O (mixture of isomers) [ETOC-TG, (+)-2-methyl4-oxo-3-(2-propynyl)-2-cyclopentenyl (+)-cis/trans-chrysanthemate] | above 608 ° F.
